Results: US10696946B2, “T-REG cell expansion” (The Board of Trustees of the University of Illinois, priority 2013, dated 2020)
Read-outs that look alike come from different tables or passages of the source.

Key:
[1] = system: Foxp3; experiment: Pathway inhibitors on OX40L, JAG1 and IL-2-induced Foxp3 expression (RT-qPCR, Western blot); assay type: cell-based, mouse; settings: at 24 h
Procedure: CD4+ T-cells (1×10^6 cells/ml) were treated with soluble OX40 L, JAG1 and IL-2 as mentioned above. In some experiments cells were pre-treated with inhibitors of Notch (GSI-R04929097, Selleckchem), NF-κ B (BAY-11-7082, Sigma-Aldrich) and STAT5 (CAS 285986-31-4, Calbiochem) signaling for 2 h and co-treated with soluble ligands for different time intervals. Cells were washed with PBS, and lysed in Laemmli buffer (Biorad) and resolved in 10% SDS-PAGE gels. Proteins were transferred to PVDF membranes (Biorad), blocked with 5% skimmed milk and incubated with primary anti-mouse Foxp3 (1:1000, ebioscience), anti-mouse phospho p65 (Ser536) and phospho STAT5 (Tyr694) (1:500, Cell Signaling Technology) antibodies. Blots were then washed, incubated with secondary anti-rabbit IgG-HRP and developed using ECL detection kit (Pierce Scientific). […] Foxp3, pp65 and pSTAT5 signal intensities were normalized to β-actin, total p65 and STAT5 signal intensities and expressed as fold change over respective controls.
For some experiments, resting and proliferating Tregs were sorted based on cell trace violet dilution. […] Gene expression values were calculated by comparative Δ Ct method after normalization to GAPDH internal control and expressed as fold change over respective controls. […] Data were analyzed using the R-package software. […]

[2] = system: Treg cell proliferation; experiment: Pathway inhibitors on OX40L, JAG1 and IL-2-induced Treg proliferation (flow cytometry); assay type: cell-based, mouse; settings: CD4+ T-cells from NOD mice pre-treated with inhibitor
Procedure: FIG. 21. Role of NF-κB and STAT5 signaling pathways in OX40L-JAG1-IL-2 induced Treg proliferation and Foxp3 expression. (A) CD4+ T-cells from NOD mice were pre-treated with pharmacological inhibitors of indicated cell signaling pathways and treated with soluble OX40L-JAG1-IL-2. Effect of these pathway inhibitors on Treg cell proliferation was measured by flow cytometry analysis. (B) RT-qPCR analysis showing effect of inhibitors of NF-κB and STAT5 signaling pathways on Foxp3 mRNA expression (Values represent Mean±SEM, n=3, *p<0.05, **p<0.01, ***p<0.001 Vs control, ^#p<0.05, ^##p<0.01 Vs None-OX40L-JAG1-IL-2). (C) Western blot analysis showing effect of inhibitors of NF-κ B and STAT5 signaling pathways on Foxp3 protein expression. Western blot analysis of the time dependent effect of soluble OX40L-JAG1-IL-2 on (D) Foxp3 expression, (E) NF-κ B p65 phosphorylation and (F) STAT5 phosphorylation in CD4+ T-cells. […]
CD4+ T-cells (1×10^6 cells/ml) were treated with soluble OX40 L, JAG1 and IL-2 as mentioned above. […] Foxp3, pp65 and pSTAT5 signal intensities were normalized to β-actin, total p65 and STAT5 signal intensities and expressed as fold change over respective controls.

[3] = system: Notch signaling; experiment: GSI-treated CD4+ T-cells from NOD mice co-cultured with G-BMDCs, proliferation by flow cytometry; assay type: cell-based, mouse; settings: indicated concentrations, 5 days with G-BMDCs
Procedure: FIG. 13. […] (A) CD4+ T-cells from NOD mice were treated with γ-secretase inhibitor (GSI)-R042929097 at indicated concentrations and then co-cultured with G-BMDCs for 5 days. Extent of proliferation was measured by flow cytometry (n=3). (B) Notch3-OX40−, […], Notch3-OX40+, Notch3+OX40+ subsets of CD4^+CD25^+ Treg cells sorted out and co-cultured with G-BMDCs for 5 days and extent of proliferation was analyzed (n=2).
Bone marrow cells were cultured in complete RPMI medium containing 10% heat-inactivated FBS in the presence of 20 ng/ml GM-CSF for 3 days. On days 4 and 6, fresh medium containing 20 ng/ml GM-CSF was added. Non-adherent CD11c^+ DCs from eight day old cultures were enriched using anti-CD11c coated magnetic beads according to the manufacturer's directions (Miltenyi Biotech, Auburn, Calif.). Specific sub-populations of GM-BMDCs and CD4+CD25+ T-cells were sorted using a MoFlo flow cytometer (Beckman/Coulter, Ranch Cucamonga, Calif.) following staining with appropriate antibodies (OX40L, Jagged-1, CD4, CD25). To obtain GFP+ and GFP− cells, total CD4+ cells were first separated using CD4 microbeads (Miltenyi Biotech) and then the cells were sorted based on GFP expression using a MoFlo flow cytometer (Beckman/Coulter). […]

[4] = system: Foxp3+ Tregs; experiment: GM-BMDC / CD4+ T-cell co-culture, Treg proliferation by CFSE dilution (FACS); assay type: cell-based, mouse; settings: for Treg proliferation: GM-BMDCs alone ~13.2±0.4%
Procedure: Each in vitro experiment was conducted in triplicate with T-cells, SpDCs and GM-BMDCs pooled from 3 mice. GM-BMDCs (5×10^4) and CD11c^+ SpDCs were cultured with CD4^+, CD4^+CD25^− and CD4^+CD25^+ T-cells at a ratio of 1:2 for 5 days. For proliferation assays, T-cell subpopulations were labelled with CFSE at 10 μM according to manufacturer's instruction (Invitrogen, Carlsbad, Calif.) before co-culturing them with DCs. Some cultures were supplemented with IL-2 (10 U/ml) (R&D Systems), antiOX40L (up to 10 μg/ml) antibody, OX40 agonist (OX-86, 5-10 μg/ml), anti-Jagged-1 (10-20 μg/ml) antibody or anti-Notch3 (10-20 μg/ml) antibody. For blocking experiments with anti-OX40L or anti-Jagged-1 antibodies, GM-BMDCs were pre-treated with the indicated antibodies for 30 min at 37° C. and then used in co-culture with naive CD4^+ T-cells. For blocking experiments with anti-Notch3 antibody, CD4+ T-cells isolated from mouse splenocytes were first treated with anti-Notch3 antibody at two different concentrations (10 and 20 μg/ml) or with 20 μg/ml of an anti-Notch 1 antibody, incubated at 37° C. for 30 minutes and then co-cultured with GM-BMDCs/SpDCs for 5 days. Some co-cultures were supplemented with different concentrations of gamma-secretase inhibitors (GSI) S-2188 (5 and 10 μM) or R04929097 (200 nM-5 μM).
Freshly isolated and ex vivo cultured cells were washed with PBS-BSA-EDTA or PBS containing 0.5% BSA. For surface staining, the cells were labelled with one of the following: specified FITC, PE, APC conjugated antibodies for 30 min, anti-CD4-eFluor-780, CD4-FITC (eBioscience), anti-CD25-PE, anti-CTLA4-PE, anti-CD39-PE, anti-Helios-PE, anti-TIGIT-PE or fixed, permeabilized, and stained with anti-, Anti-Ki67-PE, anti-Foxp3-APC and isotype controls antibodies (eBioscience) (1:100) in dark. […] Stained cells were washed three times and analyzed by Cyan flow cytometer (Beckman/Coulter) and data analysis was done using Summit v4.3 software.

[5] = system: NOD mice; settings: cited from earlier work

In the case of `O=C(N/N=C/c1coc2ccccc2c1=O)c1cccnc1` [STAT5 inhibitor], the “OX40L, JAG1 and IL-2-induced Foxp3 expression” value [1] is reported as “only moderately inhibited” and the “OX40L, JAG1 and IL-2-induced Treg proliferation” value [2] is reported as “significantly blocked”.

In the case of `Cc1ccc(S(=O)(=O)/C=C/C#N)cc1` [NF-κB inhibitor], the “OX40L, JAG1 and IL-2-induced Foxp3 expression” value [1] is reported as “significantly down regulated” and the “OX40L, JAG1 and IL-2-induced Treg proliferation” value [2] is reported as “significantly blocked”.

With `CC(C)(C(=O)NCC(F)(F)C(F)(F)F)C(=O)N[C@@H]1C(=O)Nc2ccccc2-c2ccccc21` [R04929097] the “inhibition of Notch signaling / Treg proliferation” value [3] was “dose-dependent manner”, the Treg proliferation ([4]; 250 nM) was 5.2±0.4% and the Treg proliferation ([4]; 5 μM) was 1.7±0.3%. The “GM-BMDC mediated Treg proliferation” value ([4]; different concentrations (FIG. 8)) was “abrogated”.

B1: OX40L: tumor necrosis factor superfamily member with co-stimulatory function, binds OX40 (protein, UniProt P23510 1-183, looked up)
Tumor necrosis factor ligand …: MERVQPLEENVGNAARPRFERNKLLLVASVIQGLGLLLCFTYICLHFSALQVSHRYPRIQSIKVQFTEYKKEKGFILTSQKEDEIMKVQNNSVIINCDGFYLISLKGYFSQEVNISLHYQKDEEPLFQLKKVRSVNSLMVASLTYKDKVYLNVTTDNTSLDDFHVNGGELILIHQNPGEFCVL
In the case of B1, the “CD4+CD25+Foxp3+ Treg cells” value ([5]; 6-week old NOD mice) is given as “increase”, the development of diabetes ([5]; 6-week old NOD mice) is given as “protect” and the development of diabetes ([5]; 12-week old NOD mice) is given as “accelerated diabetes development”.
